Values of other authors as cited in patent US20050085446A1, “Fluoroquinolone formulations and methods of making and using the same” (priority 2003, published 2005).
Like-named read-outs stand apart in the source and are kept apart here.

Tested on: bacterial strains

Row | Compound | MIC90 (generally around) | MIC90 [μg/gm]
1 | O=C(O)c1cn(C2CC2)c2cc(N3CCNCC3)c(F)cc2c1=O [ciprofloxacin, 1-cyclopropyl-6-fluoro-1,4-dihydro-4-oxo-7-(1-piperazinyl)-3-quinolinecarboxylic acid] | around 0.5 μg/g | 
2 | gentamicin |  | 10
